For 15 molecules, DC50 results are on record in patent US20240190880A1 (THE REGENTS OF THE UNIVERSITY OF MICHIGAN, priority 2021, published 2024).

SMILES strings stand for the structures.

The first test has as its target T1, ER (Homo sapiens, UniProt P03372).
T1 construct: host or cells: T47D and MCF7 human breast cancer cells
T1 sequence (P03372 1-595): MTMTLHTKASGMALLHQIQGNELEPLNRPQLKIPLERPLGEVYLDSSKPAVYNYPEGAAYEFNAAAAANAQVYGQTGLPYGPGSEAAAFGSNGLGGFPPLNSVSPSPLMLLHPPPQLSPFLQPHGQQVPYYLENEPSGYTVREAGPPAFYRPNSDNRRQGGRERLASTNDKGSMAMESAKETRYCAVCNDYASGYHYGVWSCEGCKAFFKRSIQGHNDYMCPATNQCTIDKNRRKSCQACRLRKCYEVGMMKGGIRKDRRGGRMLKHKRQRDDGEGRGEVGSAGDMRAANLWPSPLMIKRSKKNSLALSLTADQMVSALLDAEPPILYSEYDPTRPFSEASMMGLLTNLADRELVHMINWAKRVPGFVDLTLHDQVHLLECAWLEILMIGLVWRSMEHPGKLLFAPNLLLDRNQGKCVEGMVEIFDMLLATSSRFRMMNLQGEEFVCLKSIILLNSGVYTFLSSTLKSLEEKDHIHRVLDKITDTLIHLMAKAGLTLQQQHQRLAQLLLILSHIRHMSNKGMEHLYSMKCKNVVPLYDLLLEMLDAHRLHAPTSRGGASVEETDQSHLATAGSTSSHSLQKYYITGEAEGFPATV
As to the kind of experiment: ER degradation activity, in-cell western blot analysis in T47D cells. The conditions noted are these: 16 hours, Table A does not say which cell line (T47D or MCF7), read-out: Potency (DC50). In kind it is cell-based. The gist of the method: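 In-cell western, T47D; compounds 16 h, 0.5% DMSO final; anti-rabbit-680/anti-mouse-800 secondaries, 1 h RT, dark; read on CLX imager. ER % vs untreated/DMSO wells (100%).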
As to `C[C@@H]1Cc2c([nH]c3ccccc23)[C@@H](c2c(F)cc(N3CCC(N4CC(CN5Cc6cc7c(cc6C5)C(=O)N(C5CCC(=O)NC5=O)C7=O)C4)CC3)cc2F)N1CC(F)F` (stereo partly drawn) [E 117, 6-((1-(1-(4-((1R,3R)-2-(2,2-difluoroethyl)-3-methyl-2,3,4,9-tetrahydro-1H-pyrido[3,4-b]indol-1-yl)-3,5-difluorophenyl)piperidin-4-yl)azetidin-3-yl)methyl)-2-(2,6-dioxopiperidin-3-yl)-6,7-dihydropyrrolo[3,4-f]isoindole-1,3(2H,5H)-dione], the DC50 lay in the range of 0.01 to 0.1 µM.

For the molecule `O=C1CCC(N2C(=O)c3cc4c(cc3C2=O)CN(CC(=O)NC2CCN(c3ccc([C@@H]5c6ccc(O)cc6CC[C@@H]5c5ccccc5)cc3)CC2)C4)C(=O)N1` (stereo partly drawn) [E331, 2-(6-(2,6-dioxopiperidin-3-yl)-5,7-dioxo-3,5,6,7-tetrahydropyrrolo[3,4-f]isoindol-2(1H)-yl)-N-(1-(4-((1R,2S)-6-hydroxy-2-phenyl-1,2,3,4-tetrahydronaphthalen-1-yl)phenyl)piperidin-4-yl)acetamide], the half-maximal degradation concentration (DC50) is more than 0.1 µM.

For `C[C@@H]1Cc2cc(O)ccc2[C@@H](c2c(F)cc(N3CCN(C(=O)[C@H]4CC[C@H](N5Cc6cc7c(cc6C5)C(=O)N(C5CCC(=O)NC5=O)C7=O)CC4)CC3)cc2F)N1CC(F)F` (mixture of isomers) [E 353, rac-6-((1S,4r)-4-(4-(4-((1S,3R)-2-(2,2-difluoroethyl)-6-hydroxy-3-methyl-1,2,3,4-tetrahydroisoquinolin-1-yl)-3,5-difluorophenyl)piperazine-1-carbonyl)cyclohexyl)-2-(2,6-dioxopiperidin-3-yl)-6,7-dihydropyrrolo[3,4-f]isoindole-1,3(2H,5H)-dione], the 50% degradation concentration (DC50) is more than 0.1 µM.

In the case of `C[C@@H]1Cc2c([nH]c3ccccc23)[C@@H](c2c(F)cc(-c3ccc(C(=O)N4CCC(N5Cc6cc7c(cc6C5)C(=O)N(C5CCC(=O)NC5=O)C7=O)CC4)cn3)cc2F)N1CC(F)F` (stereo partly drawn) [E 343, 6-(1-(6-(4-((1R,3R)-2-(2,2-difluoroethyl)-3-methyl-2,3,4,9-tetrahydro-1H-pyrido[3,4-b]indol-1-yl)-3,5-difluorophenyl)nicotinoyl)piperidin-4-yl)-2-(2,6-dioxopiperidin-3-yl)-6,7-dihydropyrrolo[3,4-f]isoindole-1,3(2H,5H)-dione], the DC50 was less than 0.01 µM.

As for `O=C1CCC(N2C(=O)c3cc4c(cc3C2=O)CN(CC2CCN(CC3CCN(c5ccc([C@@H]6c7ccc(O)cc7CC[C@@H]6c6ccccc6)cc5)CC3)CC2)C4)C(=O)N1` (stereo partly drawn) [E 217, 2-(2,6-dioxopiperidin-3-yl)-6-((1-((1-(4-((1R,2S)-6-hydroxy-2-phenyl-1,2,3,4-tetrahydronaphthalen-1-yl)phenyl)piperidin-4-yl)methyl)piperidin-4-yl)methyl)-6,7-dihydropyrrolo[3,4-f]isoindole-1,3(2H,5H)-dione], the DC50 was more than 0.1 µM.

For the molecule `O=C1CCC(N2C(=O)c3cc4c(cc3C2=O)CN(CC(=O)N2CCC3(CC2)CCN(c2ccc(C(=C(CCCl)c5ccccc5)c5ccc(O)cc5)cc2)CC3)C4)C(=O)N1` (stereo not drawn) [E 182, 6-(2-(9-(4-(4-chloro-1-(4-hydroxyphenyl)-2-phenylbut-1-en-1-yl)phenyl)-3,9-diazaspiro[5.5]undecan-3-yl)-2-oxoethyl)-2-(2,6-dioxopiperidin-3-yl)-6,7-dihydropyrrolo[3,4-f]isoindole-1,3(2H,5H)-dione], the DC50 is less than 0.01 µM.

As to `O=C1CCC(N2C(=O)c3cc4c(cc3C2=O)CN(CC(=O)N2CCC3(CC2)CCN(c2ccc([C@@H]5c6ccc(B(O)O)cc6CC[C@@H]5c5ccccc5)cc2)CC3)C4)C(=O)N1` (mixture of isomers) [E 180, Rac-((5R,6S)-5-(4-(9-(2-(6-(2,6-dioxopiperidin-3-yl)-5,7-dioxo-3,5,6,7-tetrahydropyrrolo[3,4-f]isoindol-2(1H)-yl)acetyl)-3,9-diazaspiro[5.5]undecan-3-yl)phenyl)-6-phenyl-5,6,7,8-tetrahydronaphthalen-2-yl)boronic acid], the half-maximal degradation concentration (DC50) lay within 0.01 to 0.1 µM.

As for `C[C@@H]1Cc2cc(O)ccc2[C@@H](c2c(F)cc(N3CCC4(CCN(CC(=O)N5Cc6cc7c(cc6C5)C(=O)N(C5CCC(=O)NC5=O)C7=O)C4)C3)cc2F)N1CC(C)(F)F` (stereo partly drawn) [E 31, 6-(2-(7-(4-((1S,3R)-2-(2,2-difluoropropyl)-6-hydroxy-3-methyl-1,2,3,4-tetrahydroisoquinolin-1-yl)-3,5-difluorophenyl)-2,7-diazaspiro[4.4]nonan-2-yl)acetyl)-2-(2,6-dioxopiperidin-3-yl)-6,7-dihydropyrrolo[3,4-f]isoindole-1,3(2H,5H)-dione], the 50% degradation concentration (DC50) is more than 0.1 µM.

Take `C[C@@H]1Cc2c([nH]c3ccccc23)[C@@H](c2ccc(N3CCC(CN4CCC(N5Cc6cc7c(cc6C5)C(=O)N(C5CCC(=O)NC5=O)C7=O)CC4)CC3)cc2)N1CC(F)F` (stereo partly drawn) [E 264, 6-(1-((1-(4-((1R,3R)-2-(2,2-difluoroethyl)-3-methyl-2,3,4,9-tetrahydro-1H-pyrido[3,4-b]indol-1-yl)phenyl)piperidin-4-yl)methyl)piperidin-4-yl)-2-(2,6-dioxopiperidin-3-yl)-6,7-dihydropyrrolo[3,4-f]isoindole-1,3(2H,5H)-dione]: the 50% degradation concentration (DC50) is 0.01 to 0.1 µM.

For the molecule `C[C@@H]1Cc2cc(O)ccc2[C@@H](c2c(F)cc(N3CCC4(CCN(C(=O)CN5Cc6cc7c(cc6C5)C(=O)N(C5CCC(=O)NC5=O)C7)C4)C3)cc2F)N1CC(C)(F)F` (stereo partly drawn) [E 28, 3-(6-(2-(7-(4-((1S,3R)-2-(2,2-difluoropropyl)-6-hydroxy-3-methyl-1,2,3,4-tetrahydroisoquinolin-1-yl)-3,5-difluorophenyl)-2,7-diazaspiro[4.4]nonan-2-yl)-2-oxoethyl)-1-oxo-3,5,6,7-tetrahydropyrrolo[3,4-f]isoindol-2(1H)-yl)piperidine-2,6-dione], the half-maximal degradation concentration (DC50) was more than 0.1 µM.

On to `C[C@@H]1Cc2c([nH]c3ccccc23)[C@@H](c2c(F)cc(CN3CCC4(CCC(C(=O)N5Cc6cc7c(cc6C5)C(=O)N(C5CCC(=O)NC5=O)C7=O)CC4)CC3)cc2F)N1CC(F)F` (stereo partly drawn) [E 382, 6-(3-(4-((1R,3R)-2-(2,2-difluoroethyl)-3-methyl-2,3,4,9-tetrahydro-1H-pyrido[3,4-b]indol-1-yl)-3,5-difluorobenzyl)-3-azaspiro[5.5]undecane-9-carbonyl)-2-(2,6-dioxopiperidin-3-yl)-6,7-dihydropyrrolo[3,4-f]isoindole-1,3(2H,5H)-dione], for which the DC50 was more than 0.1 µM.

With `C[C@@H]1Cc2c([nH]c3ccccc23)[C@@H](c2c(F)cc(N3CCCC4(CN(C(=O)CN5Cc6cc7c(cc6C5)C(=O)N(C5CCC(=O)NC5=O)C7=O)C4)C3)cc2F)N1CC(F)F` (stereo partly drawn) [E 81, 6-(2-(6-(4-((1R,3R)-2-(2,2-difluoroethyl)-3-methyl-2,3,4,9-tetrahydro-1H-pyrido[3,4-b]indol-1-yl)-3,5-difluorophenyl)-2,6-diazaspiro[3.5]nonan-2-yl)-2-oxoethyl)-2-(2,6-dioxopiperidin-3-yl)-6,7-dihydropyrrolo[3,4-f]isoindole-1,3(2H,5H)-dione], the DC50 was 0.01 to 0.1 µM.

Turning to `C[C@@H]1Cc2cc(O)ccc2[C@@H](c2c(F)cc(N3CCC4(CCN(C(=O)CN5Cc6cc7c(cc6C5)C(=O)N(C5CCC(=O)NC5=O)C7=O)CC4)CC3)cc2F)N1CC(F)(F)F` (stereo partly drawn) [E 225, 6-(2-(9-(3,5-difluoro-4-((1S,3R)-6-hydroxy-3-methyl-2-(2,2,2-trifluoroethyl)-1,2,3,4-tetrahydroisoquinolin-1-yl)phenyl)-3,9-diazaspiro[5.5]undecan-3-yl)-2-oxoethyl)-2-(2,6-dioxopiperidin-3-yl)-6,7-dihydropyrrolo[3,4-f]isoindole-1,3(2H,5H)-dione], the half-maximal degradation concentration (DC50) is more than 0.1 µM.

The same test, now with this note: compounds 16 hours, Table A does not say whether T47D or MCF7, read-out: Potency (DC50).
On to `COc1nc(C2CCC(C(=O)N3CCC(N4Cc5cc6c(cc5C4)C(=O)N(C4CCC(=O)NC4=O)C6=O)CC3)CC2)ccc1[C@@H]1c2[nH]c3ccccc3c2C[C@@H](C)N1CC(F)F` (stereo partly drawn) [E 402, 6-(1-(4-(5-((1R,3R)-2-(2,2-difluoroethyl)-3-methyl-2,3,4,9-tetrahydro-1H-pyrido[3,4-b]indol-1-yl)-6-methoxypyridin-2-yl)cyclohexane-1-carbonyl)piperidin-4-yl)-2-(2,6-dioxopiperidin-3-yl)-6,7-dihydropyrrolo[3,4-f]isoindole-1,3(2H,5H)-dione], for which the 50% degradation concentration (DC50) was more than 0.1 µM.

Turning to `C[C@@H]1Cc2c([nH]c3ccccc23)[C@@H](c2ccc(C3=CCC4(CC3)CCN(C(=O)CN3Cc5cc6c(cc5C3)C(=O)N(C3CCC(=O)NC3=O)C6=O)CC4)cc2)N1CC(F)F` (stereo partly drawn) [E 478, 6-(2-(9-(4-((1R,3R)-2-(2,2-difluoroethyl)-3-methyl-2,3,4,9-tetrahydro-1H-pyrido[3,4-b]indol-1-yl)phenyl)-3-azaspiro[5.5]undec-8-en-3-yl)-2-oxoethyl)-2-(2,6-dioxopiperidin-3-yl)-6,7-dihydropyrrolo[3,4-f]isoindole-1,3(2H,5H)-dione], the 50% degradation concentration (DC50) is more than 0.1 µM.
